One assay addresses T1, 5-lipoxygenase (Homo sapiens, UniProt P09917).
T1 construct: endogenous in cells; host or cells: leukocytes from whole human blood (EDTA, dextran sedimentation, hypotonic lysis)
T1 sequence (P09917 1-674): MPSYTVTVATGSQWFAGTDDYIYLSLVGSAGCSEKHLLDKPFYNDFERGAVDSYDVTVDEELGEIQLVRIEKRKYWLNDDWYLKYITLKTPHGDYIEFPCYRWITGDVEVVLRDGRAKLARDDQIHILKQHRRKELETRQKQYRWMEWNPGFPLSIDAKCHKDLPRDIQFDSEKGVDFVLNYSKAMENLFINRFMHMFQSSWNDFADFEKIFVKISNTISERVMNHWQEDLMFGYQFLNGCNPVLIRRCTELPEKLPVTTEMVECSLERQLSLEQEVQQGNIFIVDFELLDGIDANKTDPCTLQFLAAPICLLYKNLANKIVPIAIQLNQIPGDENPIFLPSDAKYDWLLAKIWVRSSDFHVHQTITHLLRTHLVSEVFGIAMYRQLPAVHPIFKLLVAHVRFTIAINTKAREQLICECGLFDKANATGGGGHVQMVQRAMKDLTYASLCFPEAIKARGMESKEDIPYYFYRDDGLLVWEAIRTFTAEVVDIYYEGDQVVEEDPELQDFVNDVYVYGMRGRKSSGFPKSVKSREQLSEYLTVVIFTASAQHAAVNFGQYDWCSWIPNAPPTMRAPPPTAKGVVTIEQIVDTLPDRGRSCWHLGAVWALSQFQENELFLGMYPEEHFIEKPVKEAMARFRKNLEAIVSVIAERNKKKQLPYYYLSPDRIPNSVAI
In words: 5-Lipoxygenase inhibition in human leukocytes (LTC4 by radioimmunoassay). It is filed as cell-based. The conditions noted are these: A23187 stimulated, LTC4 readout, read-out: IC50 (concentration producing 50% leukotriene biosynthesis inhibition). As to the method: 5-LIPOXYGENASE INHIBITION IN HUMAN LEUKOCYTES
The test method described below measures the ability of compounds of the invention to inhibit 5-lipoxygenase activity in human leukocytes.
Whole human blood is collected by venipuncture into EDTA (1.4 mL of 0.25M per 60 mL of whole blood). The red blood cells are sedimented with a 6% dextran/0.9% sodium chloride solution at a ratio of 25 mL whole blood to 15 mL dextran solution. The blood/dextran combination is mixed by inversion and the red blood cells are allowed to settle out for 45 minutes at ambient temperature. The plasma/dextran supernatant is removed then centrifuged at ambient temperature at 3000 rpm for 10 minutes. The plasma/dextran supernatant is removed and the cells are resuspended in 10 mL of the plasma/dextran solution. The cell suspension is combined with 20 mL of water, mixed for 1.5 minutes then immediately combined with 10 mL of 3.6% sodium chloride, mixed and centrifuged at ambient temperature at 3000 rpm for 10 minutes. The pellet is washed with 40 mL of Tris buffer (5.55 mM dextrose, 15.36 mM Tris base, 136.9 mM sodium chloride with pH 7.3-7.4) then centrifuged at 3000 rpm for 10 minutes. The pellet is then resuspended into Tris buffer containing 1 mM calcium chloride to provide approximately 1.0×10^7 cells/mL.
Compounds are dissolved in dimethyl sulfoxide. Compounds are tested at concentrations of 100, 33, 11, 3.7, 1.2 and 0.41 μM. Each concentration is tested in duplicate.
A 15 μL portion of Tris buffer containing 1 mM calcium chloride is added to each well of a 96 well microtiter plate. A 1 μL portion of drug solution or vehicle (dimethyl sulfoxide) is added to each well followed by the addition of a 75 μL portion of the cell suspension. The plates are gently mixed then allowed to stand at ambient temperature for 10 minutes. A 10 μL portion of 30 μM A23187 Calcium Ionophore (prepared by dissolving the ionophore in DMSO and then diluting 1:80 into the Tris buffer) is added to each well except the wells that contain the blanks. The blank wells measure the level of LTC4 production in the absence of A23187. The plates are gently mixed then incubated at 37° C. for 10 minutes.
Following incubation the plates are centrifuged at 2000 rpm for 1.5 minutes and the supernatant is removed as quickly as possible to stop the reaction. The supernatants are frozen at -20° C. until they are assayed.
The supernatants are assayed for the presence of Leukotriene C4 by radioimmunoassay which is performed according to the manufacturer's instructions (Advanced Magnetics; Cambridge, Mass.). Inhibition of leukotriene biosynthesis is calculated as the ratio of the amount of LTC4 formed in the presence (LTC4 +cpd) and absence (LTC4 no cpd) of compound according to the following equation. [formula] IC50 values (concentrations of compound producing 50% leukotriene biosynthesis inhibition) are calculated by linear regression analysis of percentage inhibition versus log compound concentration plots.

Assay [1] relates to Leukotriene B4 production in rat blood. Briefly: Rat ex vivo Leukotriene B4 inhibition. As to conditions: 50 mg/Kg oral, 2 hours post dose, ex vivo A23187 challenge. Type of assay: in vivo. As to the method:
RAT EX VIVO LEUKOTRIENE B4 INHIBITION
The test method described below measures the ability of a compound when administrated orally to rats to inhibit the production of Leukotriene B4 in their blood which is drawn and challenged.
Rats (CD, male, non-fasted, 250 g) are lightly anesthetized with carbon dioxide and an approximately 0.75 mL sample of whole blood is obtained via cardiac puncture. The sample is dispensed into 12×75 mm polypropylene tubes containing 8-10 μL of 10,000 units/mL heparin, mixed and then maintained on ice. The rats are allowed to recover approximately one hour then dosed orally with compound dissolved in PEG 400 at a 5 mL/Kg volume. Five (5) rats are utilized per group. Two (2) hours post dose the rats are again anesthetized with carbon dioxide and the blood sampled again via cardiac puncture.
Duplicate 200 μL portions of blood are added to 1.0 mL polypropylene tubes. A 10 μL portion of 1 mM A23 187 Calcium Ionophore in dimethyl sulfoxide/Tris buffer is added to each tube. The tubes are gently vortexed then incubated in a 37° C. water bath for 30 minutes. The tubes are then centrifuged at 4000 rpm for 10 minutes. 50 μL portions of plasma are transferred to 1.0 mL tubes containing 200 μL of methanol. The tubes are vortexed then placed in the freezer overnight.
The tubes are removed from the freezer then centrifuged at 4000 rpm for 10 minutes. 20 μL portions of the methanol/plasma supernatant and 10 μl methanol dilutions of LTB4 standard are transferred to 96 well v-bottom microtiter plates. The plates are vacuum dried at 40° C. A 40 μL portion of LTB4 radioimmunoassay buffer is added to each well. The plate is bath sonicated for 5 minutes then assayed according to the manufacturer's instructions (Advanced Magnetics; Cambridge, Mass.). Percent inhibition values are obtained by comparing the level of LTB4 in the post-dose samples to the level in the pre-dose samples according to the equation below. [formula]

Assay [2] has as its system Leukotriene C4 production in mouse peritoneal macrophages. In words: In vitro mouse peritoneal macrophage Leukotriene C4 inhibition. Type of assay: cell-based. As to conditions: zymosan stimulated, read-out: Percent Inhibition. As for the experimental part: IN VITRO MOUSE PERITONEAL MACROPHAGE LEUKOTRIENE C4 INHIBITION
The test described below measures the ability of compounds to inhibit the production of Leukotriene C4 in mouse peritoneal macrophages.
Mice (female, CD-1, weighing 25 g) are euthanized by exposure to carbon dioxide. The pertoneal cavity is exposed by peeling back the abdominal skin. A 5 mL portion of media (M199 containing 1% fetal bovine serum, 100 units/mL of penicillin, 100 μg/mL streptomycin, 20 units/mL of heparin and no glutamine) is injected into the exposed peritoneal cavity of each mouse. The lavage fluid is removed and pooled to yield proximately 1×10^6 macrophages/mL. A 2 mL portion of lavage fluid is added to each well of a 24 well sterile multidish and the marcophages are allowed to adhere to the plate for 2 hours at 37° C. in a 5% carbon dioxide atmosphere. The media is removed and each well is washed with 2 mL of phosphate buffered saline (PBS). A 1 mL portion of media, without heparin, but containing 5 μCi/mL of 3H-myoinositol is added to each well and the plates are incubated overnight at 37° C. in a 5% carbon dioxide atmosphere. The media is removed and the cells are washed twice with 2 mL portions of PBS. A 1 mL portion of Puck's saline formulation A containing 1 mM calcium chloride, 1 mM magnesium chloride and 10 mM lithium chloride is added to each well. (The Puck's formulation is made first as a 10× solution which contains 4 g of potassium chloride, 80 g of sodium chloride and 10 g of glucose per liter. The Puck's saline formulation A is made using 10 mL of the 10× Puck's formulation, 0.47 mL of 7.5% sodium bicarbonate and 2 mL of 1M N-2-hydroxyethylpiperazine-N'-2-ethanesulfonic acid per 100 mL.)
Compounds are dissolved in dimethyl sulfoxide. Compounds are tested at concentrations of 10, 1 and 0.1 μM. Each concentration is tested in duplicate.
A 1 μL portion of compound solution or vehicle (DMSO) is added to each well and the plates are incubated for 15 minutes at 37° C. in a 5% carbon dioxide atmosphere. Zymosan is then added to provide a final concentration of 50 μg/mL in each well and the plate is incubated for 1 to 2 hours at 37° C. in a 5% carbon dioxide atmosphere.
Following incubation 200 μL portions of media are transferred to 12×75 mm tubes. The tubes are either assayed immediately or stored at -20° C. until they can be assayed.
The media is assayed for the presence of Leukotriene C4 by radioimmunoassay which is performed according to the manufacturer's instructions (Advanced Magnetics; Cambridge, Mass.). Inhibition of LTC4 production is calculated as the ratio of the amount of LTC4 formed in the presence (LTC4 +cpd) and absence (LTC4 no cpd)of compound according to the equation below. [formula] IC50 values (concentration of compound producing a 50% inhibition of LTC4 production) are calculated by linear regression analysis of percentage inhibition versus log compound concentration plots.

On to `CCC(CC)N(O)C(=O)Nc1ccc(Cc2ccc(NC(=O)N(O)C(CC)CC)c(Cl)c2)cc1Cl` [Example 19, 4,4'-Methylenebis(1-hydroxy-1-(1-ethylpropyl)-3-(2-chlorophenyl)urea)], for which the IC50 at 5-lipoxygenase was 110 nM. On the same count and under the same terms, next, `CCC(CC)N(O)C(=O)Nc1ccc(NC(=O)N(O)C(CC)CC)cc1` [Example 15, 1,1'-(p-Phenylene)bis(3-hydroxy-3-(1-ethylpropyl)urea)]: 2100 nM. On to `CCC(CC)N(O)C(=O)Nc1ccc(Cc2ccc(NC(=O)N(O)C(CC)CC)cc2)cc1` [Example 12, 4,4'-Methylenebis(1-hydroxy-1-(1-ethylpropyl)-3-phenylurea)], for which, in assay [1], the inhibition in vivo (usually the share of the control response that was lost under treatment) at 50 mg/kg turned out to be 15%. Moreover, the inhibition (in general, the percentage by which the read-out fell short of the control) at 0.1 µM in assay [2] (0.1 μM) turned out to be 83%. The inhibition at 1 µM in assay [2] (1.0 μM) is 93%. Also, in assay [2] (10.0 μM), the inhibition at 10 µM is 100%. As for `CCC(CC)N(O)C(=O)NC(C)(C)c1cccc(C(C)(C)NC(=O)N(O)C(CC)CC)c1` [Example 13, 1,1'-(m-Phenylene)bis(1-methyl-1-(3-hydroxy-3-(1-ethylpropyl)ureido)ethane)], the IC50 on 5-lipoxygenase was found to be 65000 nM. Same read-out and setting: next, `CCC(CC)N(O)C(=O)NCCCCCCCCNC(=O)N(O)C(CC)CC` [Example 18, 1,1'-Octamethylenebis(3-hydroxy-3-(1-ethylpropyl)urea)]: 330 nM. The same measure, in the same setting: next, `CCC(CC)N(O)C(=O)NCCCC(C)CNC(=O)N(O)C(CC)CC` (centres unmarked) [Example 17, 1,1'-(2-Methylpentamethylene)bis(3-hydroxy-3-(1-ethylpropyl)urea)]: 12000 nM; `CCC(CC)N(O)C(=O)Nc1ccc(C)c(NC(=O)N(O)C(CC)CC)c1` [Example 16, 1,1'-(4-Methyl-m-phenylene)bis(3-hydroxy-3-(1-ethylpropyl)urea)]: 58600 nM; `CCC(CC)N(O)C(=O)Nc1ccc(Oc2ccc(NC(=O)N(O)C(CC)CC)cc2)cc1` [Example 14, 4,4'-Oxybis(1-hydroxy-1-(1-ethylpropyl)-3-phenylurea)]: 100 nM.
